# Source: patent US20050169839A1, “Biomarker for efficacy of appetite suppressant drugs” (priority 2002, published 2005)
# Several values for one entry are separate records, joined by “and”; a condition that tells them apart may be missing. Identical values can stand only once.
# Experiments:
# Format in all cases: in vivo, rat
# [1] = Body weight change after 4-day dosing in male DIO rats; settings: for BW change (g), mean: group mean
# Experimental: (§1) To determine if plasma AGRP level correlates with a subject's intake of MC4R agonists given as appetite suppressants, we measured plasma AGRP level in DIO rats after treatment with specific MC4 agonists. Male DIO rats were treated either with an MC4 agonist (15 mg/kg, po, b.i.d., for 4 days, n=7) or with vehicle (n=7). The specific MC4 agonist used for treatment was (aR)-N,N-bis(4-[(tert-butylamino)carbonyl]-4-cyclohexyl 1-{4-fluoro-N-[(2-methyl-2-azabicyclo[2.2.1]hept-6-yl)carbonyl]-D-phenylalanyl}piperidin-2-yl)-4-fluoro-N-[(2-methyl-2-azabicyclo[2.2.1]hept-6-yl)carbonyl]-D-phenylalaninamide hydrochloride (hereinafter Compound A).
# (§2) After 4 days of treatment with Compound A or with vehicle, plasma samples were obtained from each rat. Plasma AGRP level was thereafter determined using an RIA Kit from Phoenix Pharmaceuticals, Inc. (Belmont, Calif.).
# (§3) In a different experiment, groups of male DIO rats were treated either with a second MC4R agonist (20 mg/kg, po, b.i.d., for 4 days, n=6) or with vehicle (n=5). In this study, the specific MC4 agonist used was 4-[2-methylaminocarbonyl-4-flurorphenyl]-1-{[(3S, 4R)-1-tert-butyl-4-(2,4-difluorophenyl)-pyrrolidin-3-yl]carbonyl}piperidine (hereinafter Compound B). […] For each treatment group, plasma samples were collected after 4 days of treatment and AGRP level was measured using an RIA Kit from Phoenix Pharmaceuticals, Inc. (Belmont, Calif.).
# as §2, with “Male DIO rats were treated either with S(+) fenflurarnine (3 mg/kg, po, b.i.d., for 4 days, n=7) or with vehicle (n=5). […] After” for “After”
# [2] = test system: plasma AGRP; assay: Plasma AGRP level (RIA) after 4-day dosing in male DIO rats; settings: for AGRP (pg/0.1 mL), mean / AGRP (pg/0.1 mL): plasma; for AGRP (pg/0.1 mL), mean: group mean
# Text: A human AGRP RIA assay kit (Phoenix Pharmaceuticals, Inc., Belmont, Calif.), a human leptin RIA kit (Linco Research, Inc., St. Charles, Mo.), and a human specific insulin RIA kit (Linco Research, Inc., St. Charles, Mo.), were used to measure AGRP, leptin, and insulin, respectively in human plasma samples. A Phoenix AGRP RIA kit, which contains synthetic human AGRP (aa83-132) as a standard, was also used to measure AGRP level in rat plasma samples. […] Statistical comparison is based on one-way ANOVA, t or paired t test.
# as §1, §2, §3
# as §2, with “Male DIO rats were treated either with S(+) fenflurarnine (3 mg/kg, po, b.i.d., for 4 days, n=7) or with vehicle (n=5). […] After” for “After”
# [3] = Body weight change after 4-day sibutramine dosing in male Sprague-Dawley rats; settings: sibutramine 3 mg/kg oral once daily for 4 days; mean±standard error; n=7; vehicle gained 23.6±4.16 g
# Experimental: Male Sprague-Dawley rats (Charles River Laboratories, Wilmington, Mass.), which were 71 days of age at the beginning of the experiment, were treated with either vehicle alone (0.5% methyl cellulose; n=5 rats) or sibutramine (3 mg/kg of body weight in 0.5% methyl cellulose; n=7 rats). The treatment regime consisted of a single daily oral dose of the test compound every day for 4 days.
# The body weight of each rat was measured before commencement of the experiment and at its conclusion. After 4 days of treatment with either test compound, plasma samples of each rat were collected for the measurement of AGRP level. […] The AGRP kit contains a synthetic human AGRP fragment (aa83-132) as the standard. […] For AGRP RIA, 100 μl rat plasma was used per assay. […] Statistical comparison is based on unpaired t test.
# [4] = Compound B 20 mg/kg po b.i.d. 4 days, n=6
# [5] = Compound B 20 mg/kg po b.i.d. 4 days, individual rats 1-6
# [6] = S(+) fenfluramine 3 mg/kg po b.i.d. 4 days, n=7
# [7] = S(+) fenfluramine 3 mg/kg po b.i.d. 4 days, individual rats 1-7
# [8] = Compound A 15 mg/kg po b.i.d. 4 days, n=7
# [9] = Compound A 15 mg/kg po b.i.d. 4 days, individual rats 1-7, hydrochloride, 15 mg/kg
compound,measurement,setting,value
"CNC(=O)c1cc(F)ccc1C1CCN(C(=O)[C@@H]2CN(C(C)(C)C)C[C@H]2c2ccc(F)cc2F)CC1 [Compound B, 4-[2-methylaminocarbonyl-4-flurorphenyl]-1-{[(3S, 4R)-1-tert-butyl-4-(2,4-difluorophenyl)-pyrrolidin-3-yl]carbonyl}piperidine]",effect on body weight (in words),"[1]; Compound B 20 mg/kg po b.i.d. 4 days, DIO rats",not effective at reducing body weight
same,"BW change (g), mean",[1]; [4],17.5 g
same,BW change,[1]; [5],25 g (2×) and 5 g and 23 g and 15 g and 12 g
same,body weight gained,"[1]; Compound B 20 mg/kg po b.i.d. 4 days, mean±standard error, vehicle gained 14.2±1.9 g",17.5 ± 3.3 g
same,"AGRP (pg/0.1 mL), mean",[2]; [4],48.4 pg/0.1 mL
same,AGRP (pg/0.1 mL),[2]; [5],45.6 pg/0.1 mL and 26 pg/0.1 mL and 39.8 pg/0.1 mL and 66.9 pg/0.1 mL and 47 pg/0.1 mL and 64.8 pg/0.1 mL
same,Plasma AGRP level,"[2]; Compound B 20 mg/kg po b.i.d. 4 days, vehicle 45.8±14",48.4±6.3 pg/100 μl plasma
"CCN[C@@H](C)Cc1cccc(C(F)(F)F)c1 [S(+) fenfluramine, reference compound]","BW change (g), mean",[1]; [6],-16.3 g
same,BW change,[1]; [7],−25 g and −13 g (2×) and −10 g (2×) and −15 g and −28 g
same,body weight lost,"[1]; S(+) fenfluramine 3 mg/kg po b.i.d. 4 days, mean±standard error, vehicle gained 14.2±1.9 g",16.3 ± 2.7 g
same,"AGRP (pg/0.1 mL), mean",[2]; [6],48.3 pg/0.1 mL
same,AGRP (pg/0.1 mL),[2]; [7],39.3 pg/0.1 mL and 22.8 pg/0.1 mL and 57.8 pg/0.1 mL and 62.6 pg/0.1 mL and 94.4 pg/0.1 mL and 16.9 pg/0.1 mL and 44.6 pg/0.1 mL
same,average plasma AGRP level,"[2]; S(+) fenfluramine 3 mg/kg po b.i.d. 4 days, vehicle 45.8±14",48.3±9.9 pg/100 μl plasma
"CC(C)CC(N(C)C)C1(c2ccc(Cl)cc2)CCC1.Cl.O (centres unmarked) [sibutramine, N-{1-[1-(4-chlorophenyl)cyclobutyl]-3-methylbutyl}-N,N-dimethylamine hydrochloride monohydrate]",body weight gained,[3],10 ± 4.76 g
"(aR)-N,N-bis(4-[(tert-butylamino)carbonyl]-4-cyclohexyl 1-{4-fluoro-N-[(2-methyl-2-azabicyclo[2.2.1]hept-6-yl)carbonyl]-D-phenylalanyl}piperidin-2-yl)-4-fluoro-N-[(2-methyl-2-azabicyclo[2.2.1]hept-6-yl)carbonyl]-D-phenylalaninamide hydrochloride [Compound A]","BW change (g), mean",[1]; [8],-4.9 g
same,BW change,[1]; [9],2 g and 1 g and −2 g and −5 g and −7 g (2×) and −16 g
same,body weight lost,"[1]; Compound A 15 mg/kg po b.i.d. 4 days, mean±standard error, vehicle gained 3.7±1.4 g",4.9 ± 2.3 g
same,Plasma AGRP level,"[2]; Compound A 15 mg/kg po b.i.d. 4 days, mean±standard error",36.2±2.5 pg/100 μl plasma
same,"AGRP (pg/0.1 mL), mean",[2]; [8],36.2 pg/0.1 mL
same,AGRP (pg/0.1 mL),[2]; [9],35.8 pg/0.1 mL and 42.2 pg/0.1 mL and 38.1 pg/0.1 mL and 46.2 pg/0.1 mL and 33 pg/0.1 mL and 26.5 pg/0.1 mL and 31.6 pg/0.1 mL
